The results in this text go back to PubChem BioAssay (NCI).

The structures appear in SMILES notation.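 In this assay, cells in 96-well plates receive the compound at five concentrations for 48 hours. Endpoints are linearly interpolated between the surrounding concentrations. GI50 is the concentration that inhibits growth by half. At the TGI there is no net growth.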

Among the test systems are SK-MEL-2 melanoma; U251 CNS; RPMI-8226 leukemia; K-562 leukemia; MDA-MB-231 breast; OVCAR-8 ovarian; HCT-15 colon; OVCAR-3 ovarian; SF-295 CNS; RXF 393 renal.
What all share (test): NCI-60 cell line screen, 48 h

Turning to `Cc1cc2c(C(N)=O)cccc2n1-c1nc2c(c(NCc3ccccc3)n1)CCCN2`, the GI50 in the assay with SK-MEL-2 melanoma is 0.112 µM; in the assay on U251 CNS it was 0.179 µM; with RPMI-8226 leukemia, 0.0401 µM; in the assay on K-562 leukemia, 0.0955 µM; in the assay with MDA-MB-231 breast, 0.186 µM; in the assay with OVCAR-8 ovarian, 0.182 µM. Moreover, the GI50 in the assay on HCT-15 colon is 0.162 µM; in the assay with OVCAR-3 ovarian, 0.206 µM; with SF-295 CNS, 0.174 µM; in the assay with RXF 393 renal, 0.126 µM. Also, the TGI in the assay on SK-MEL-2 melanoma was determined as 0.265 µM; in the assay on U251 CNS it was 0.331 µM; in the assay on RPMI-8226 leukemia it was 0.325 µM; in the assay with K-562 leukemia, 2.92 µM; in the assay with MDA-MB-231 breast it was 0.394 µM; in the assay on OVCAR-8 ovarian, 0.431 µM. The TGI is 0.467 µM in the assay with HCT-15 colon, 0.41 µM in the assay on OVCAR-3 ovarian, 0.352 µM with SF-295 CNS and 0.273 µM in the assay on RXF 393 renal.

Regarding `Clc1cc(Cl)cc(N2N=C(c3cccc(Nc4ccncc4)c3)CC2c2ccc(Br)cc2)c1` (centres undefined), the GI50 in the assay on K-562 leukemia was 2.26 µM; with MDA-MB-231 breast, 1.51 µM; in the assay with OVCAR-8 ovarian, 2.16 µM; in the assay on HCT-15 colon, 1.8 µM; in the assay on OVCAR-3 ovarian it was 1.72 µM; in the assay on SF-295 CNS, 1.79 µM. Besides, the TGI in the assay with K-562 leukemia is 5.69 µM; with MDA-MB-231 breast it was 2.91 µM; in the assay on OVCAR-8 ovarian it was 4.87 µM; with HCT-15 colon it was 3.49 µM; with OVCAR-3 ovarian, 3.21 µM; in the assay with SF-295 CNS, 3.2 µM.

Regarding `O=C(CNC(=O)c1cccc2ccccc12)Nc1ccccc1Oc1ccccc1`, the GI50 in the assay on SK-MEL-2 melanoma was 0.272 µM; with U251 CNS, 0.328 µM; in the assay with RPMI-8226 leukemia, 0.318 µM; in the assay with K-562 leukemia, 0.0704 µM; in the assay with MDA-MB-231 breast it was 0.982 µM; in the assay with OVCAR-8 ovarian it was 0.315 µM. The GI50 was 0.245 µM in the assay with HCT-15 colon, 0.19 µM in the assay on OVCAR-3 ovarian and 0.25 µM in the assay with SF-295 CNS. In addition, the TGI in the assay on SK-MEL-2 melanoma, with U251 CNS, in the assay with RPMI-8226 leukemia, in the assay with K-562 leukemia, in the assay with MDA-MB-231 breast and with OVCAR-8 ovarian was greater than 10 µM throughout. The TGI with HCT-15 colon was greater than 10 µM; with OVCAR-3 ovarian it was 0.638 µM; with SF-295 CNS it was greater than 10 µM.

With `Cc1cc(N/N=C/c2nc(-c3ccccc3)oc2C)c2cc(Cl)ccc2n1`, the GI50 with SK-MEL-2 melanoma was 18.7 µM; in the assay on U251 CNS it was 1.78 µM; with MDA-MB-231 breast, 1.85 µM; with OVCAR-8 ovarian, 2.04 µM; in the assay on HCT-15 colon, 1.68 µM; in the assay with OVCAR-3 ovarian it was 1.94 µM. Further, the figures for the GI50 in the assay on SF-295 CNS and in the assay on RXF 393 renal were 1.69 µM and 1.7 µM, respectively. Also, the TGI with SK-MEL-2 melanoma turned out to be 38.7 µM; in the assay on U251 CNS it was 3.34 µM; in the assay on MDA-MB-231 breast it was 3.69 µM; in the assay with OVCAR-8 ovarian, 4.4 µM; in the assay with HCT-15 colon it was 3.37 µM; in the assay on OVCAR-3 ovarian, 3.57 µM. Moreover, the TGI in the assay on SF-295 CNS amounted to 3.2 µM; in the assay with RXF 393 renal, 3.42 µM.

As for `O=C(Nc1ccc(Nc2ccncc2)cc1)c1ccc(Nc2ccnc3ccc([N+](=O)[O-])cc23)cc1`, the GI50 is greater than 100 µM in the assay on SK-MEL-2 melanoma; 30.1 µM with U251 CNS; greater than 100 µM in the assay with RPMI-8226 leukemia; greater than 100 µM in the assay on K-562 leukemia; 78.2 µM in the assay with MDA-MB-231 breast; greater than 100 µM in the assay on OVCAR-8 ovarian. Also, the GI50 with HCT-15 colon was greater than 100 µM; in the assay with OVCAR-3 ovarian, 6.35 µM. Further, the TGI with SK-MEL-2 melanoma, in the assay with U251 CNS, in the assay on RPMI-8226 leukemia, in the assay on K-562 leukemia, with MDA-MB-231 breast and in the assay with OVCAR-8 ovarian was greater than 100 µM each time. For the same molecule, the TGI in the assay on HCT-15 colon and in the assay on OVCAR-3 ovarian was greater than 100 µM in each case.

In the case of `COc1cc2c(OC)c(c1)CCCC1=CC(=O)C=C(CCC2)C1=O`, the TGI in the assay with U251 CNS was greater than 100 µM; in the assay with RPMI-8226 leukemia, 25.9 µM; in the assay with K-562 leukemia, 34.6 µM; in the assay with MDA-MB-231 breast it was greater than 66.4 µM; in the assay with OVCAR-8 ovarian it was greater than 31.6 µM; with HCT-15 colon, 98.4 µM. Further, the TGI is 55.1 µM in the assay on OVCAR-3 ovarian, greater than 100 µM in the assay on SF-295 CNS and 76.7 µM in the assay on RXF 393 renal.

For `NC(=NC1CCCCCC1)c1ccc(N2CCN(c3ccc(C(N)=NC4CCCCCC4)cc3)CC2)cc1`, the GI50 with SK-MEL-2 melanoma was 7.65 µM; in the assay with U251 CNS, 3.02 µM; with K-562 leukemia it was 4.57 µM; in the assay with MDA-MB-231 breast, 8.39 µM; with OVCAR-8 ovarian it was 9 µM; in the assay on HCT-15 colon it was 24.3 µM. The GI50 in the assay with OVCAR-3 ovarian is 4.28 µM; in the assay on SF-295 CNS, 3.89 µM; in the assay on RXF 393 renal, 9.99 µM. In addition, the TGI with SK-MEL-2 melanoma was 18.1 µM; in the assay with U251 CNS, 11.3 µM; in the assay with K-562 leukemia it was greater than 50 µM; with MDA-MB-231 breast, 29 µM; with OVCAR-8 ovarian, greater than 50 µM; in the assay with HCT-15 colon, greater than 50 µM. Moreover, the TGI in the assay with OVCAR-3 ovarian was found to be 28.8 µM; in the assay on SF-295 CNS, 19.9 µM; in the assay with RXF 393 renal, 35.6 µM.

For `NC1CCC[C@@H](O)[C@H]1O` (some centres undefined), the TGI in the assay on SK-MEL-2 melanoma, in the assay with U251 CNS, in the assay with RPMI-8226 leukemia, in the assay on K-562 leukemia, with MDA-MB-231 breast and in the assay with OVCAR-8 ovarian was greater than 100 µM in each case. Besides, the TGI in the assay with HCT-15 colon, with OVCAR-3 ovarian and in the assay with SF-295 CNS was greater than 100 µM each time.

Take `CCOC(=O)C#Cc1ccc(C#CC(=O)OCC)cc1`: the TGI with RPMI-8226 leukemia was greater than 25.3 µM; with MDA-MB-231 breast, greater than 22.7 µM; in the assay on OVCAR-8 ovarian, greater than 23.2 µM; in the assay with HCT-15 colon, greater than 20.2 µM; in the assay with OVCAR-3 ovarian, greater than 20.5 µM; in the assay on SF-295 CNS it was greater than 32.1 µM. Further, the TGI in the assay on RXF 393 renal was 16.6 µM.

Take `Cc1nc(NC(=S)Nc2ccc(F)cc2)sc1C(=O)NNC(=S)Nc1ccc(F)cc1`: the GI50 with SK-MEL-2 melanoma is 19.4 µM; with RPMI-8226 leukemia, 2.2 µM; in the assay on K-562 leukemia, 3.91 µM; in the assay on MDA-MB-231 breast, 10.4 µM; in the assay on OVCAR-8 ovarian it was 16 µM; in the assay on OVCAR-3 ovarian, 2.55 µM. The GI50 in the assay with SF-295 CNS was 3.96 µM. For the same molecule, the TGI in the assay on SK-MEL-2 melanoma was 60.3 µM; in the assay on RPMI-8226 leukemia it was 6.9 µM; with K-562 leukemia it was greater than 100 µM; in the assay on MDA-MB-231 breast, 25.1 µM; with OVCAR-8 ovarian, greater than 100 µM; in the assay with OVCAR-3 ovarian, 10.1 µM. The TGI with SF-295 CNS was determined as 21.1 µM.
